Source: patent US4416826A, “Peresters and use thereof” (priority 1980, dated 1983)

Assays:
[1] = Polymerization of unsaturated polyester films under UV lamp (wipe resistance, pendulum hardness); details: for Passes necessary to achieve resistance to wiping: 0.2 parts in 10 parts resin, 100μ film, 17 m/min
Protocol: This mixture is stirred until a solution is obtained, which is then drawn out on glass plates with a film drawer (100μ). […] The samples are passed, on a conveyer belt, under the UV-lamp at a rate of 17 m/min. (20 volts).
In addition, the hardness of the film is determined using a pendulum apparatus according to Konig.

[2] = literature discussion; cited from earlier work
[3] = Photodecomposition kinetics and quantum yields at 366 nm (benzophenone-benzhydrol actinometry); format: physicochemical
Protocol: Kinetic studies are carried out in degassed, sealed tubes by irradiating them with 366 nm light obtained from a Hanovia medium-pressure mercury lamp by combining the Corning Filters 0-52 and 7-60. The decompositions of the […] followed by the carbonyl IR absorption adjacent to the peroxide group (O=COO--) (1770 cm^-1). Benzophenone-benzhydrol redox actinometry are used throughout the study. In particular, a solution of […] (2 mL) in the appropriate solvent is placed in Pyrex tubes (12-mm diameter), degassed, and sealed under vacuum. Three cycles of freeze-thaw removes dissolved oxygen. The tubes are placed in a merry-go-round around a water-cooled light source, removed at different predetermined intervals, and kept frozen in liquid nitrogen in the dark until analysis is done. The estimation of […] done by quantitative IR, monitoring the carbonyl peak at 1770 cm^-1. […] Absorbance is measured with a 0.1 mm NaCl cell against solvent reference. With every run, two tubes containing actinometric solutions (benzophenone (0.1 M) and benzhydrol (0.05 M) in benzene are irradiated.

[4] = Thermal stability / thermal decomposition of peresters in the dark; format: physicochemical; details: 80° C. in benzene
[5] = Polymerization of methyl methacrylate; details: initiator 5 × 10^-2 M, benzophenone 5.5 × 10^-2 M, [MMA] = 3.1 M, 25° C., benzene
Protocol: Commercial methyl methacrylate monomer is washed three times with 2% NaOH solution to remove stabilizer. It is then washed with distilled water three times, dried with molecular sieves, and distilled under vacuum before use. Polymerization solutions are prepared in cylindrical tubes which are degassed and sealed. The amount of polymer formed is determined by precipitating the polymer with an excess of methanol, washing with methanol, and filtering through fine sintered crucibles (previously weighed) followed by drying in a vacuum oven. The irradiation condition is the same as that in the decomposition rate example hereinabove.

CC(C)(C)OOC(=O)c1ccc(C(=O)c2ccccc2)cc1 [drawing 15]
Passes necessary to achieve resistance to wiping [1]: 12 | Pendulum hardness according to Konig, H ([1]; after 12 passes): 24 | Pendulum hardness according to Konig, H ([1]; after 14 passes): 38

O=C(c1ccccc1)c1ccccc1 [Benzophenone, reference compound]
Passes necessary to achieve resistance to wiping [1]: > 20 | Pendulum hardness according to Konig, H ([1]; number of passes for hardness not given): wet | triplet energy [2]: ~69 kcal/mol

COc1ccc(C(=O)c2ccc(C(=O)OOC(C)(C)C)cc2)cc1
Passes necessary to achieve resistance to wiping [1]: 14 | Pendulum hardness according to Konig, H ([1]; after 14 passes): 23 | Pendulum hardness according to Konig, H ([1]; after 16 passes): 26

O=C(OOC(=O)c1ccccc1)c1ccccc1 [Bz2 O2, benzoyl peroxide, reference compound]
photodecomposition behaviour, in words ([3]; 366 nm radiation, room temperature): photostable | quantum yield of sensitized decomposition (φ of dec) ([3]; C6 H6, 4.67 × 10^-2 M, benzophenone 5.89 × 10^-2 M): 0.32 | sensitized photodecomposition rate constant kd × 10^4 ([3]; C6 H6, 25° C., 4.67 × 10^-2 M, benzophenone 5.89 × 10^-2 M, given as kd × 10^4): 0.64 s^-1 | quantum yield of sensitized decomposition (φ of dec) ([3]; CCl4, 3.50 × 10^-2 M, benzophenone 3.75 × 10^-2 M): 0.17 | thermal decomposition, in words [4]: a decomposition rate comparable to the literature value | Rate of Polymerization (Rp) of MMA, Rp × 10^5 [5]: 2.58 mL^-1 s^-1

Cc1ccc(C(=O)c2ccc(C(=O)OOC(C)(C)C)cc2)cc1
Passes necessary to achieve resistance to wiping [1]: 13 | Pendulum hardness according to Konig, H ([1]; after 13 passes): 23 | Pendulum hardness according to Konig, H ([1]; after 15 passes): 51

C=Cc1ccccc1 [Styrene]
triplet energy [2]: 62 kcal/mol
